Results from patent US9512139B2, “Conformationally constrained, fully synthetic macrocyclic compounds” (POLYPHOR AG, priority 2009, dated 2016).
Like-named read-outs stand apart in the source and are kept apart here.

Columns and labels:
[1] = test system: MAPK/MEK/B-raf pathway (AP1-bla A375 cells); test: MAPK/MEK/B-raf AP1-bla A375 inhibitor screen, constitutively activated (negative control of the Wnt assay); type: cell-based
Protocol: (§1) 3. Assays for the Wnt-Pathway
(§2) For determining the activity of the test compounds on the Wnt-pathway each substances war subjected to two distinct assays: The first (Wnt/Beta-Catenin) assay screened for inhibitors of the Wnt-pathway while the second (MAPK/MEK/B-raf) was conducted in order to confirm that the test compounds modulate the β-catenin-dependent, canonical Wnt pathway and are not acting via a possibly competing β-catenin-independent, noncanonical Wnt messaging system.
(§3) Both assays were performed and analyzed with a Tecan Safire^2 fluorescence plate reader.
MAPK/MEK/B-raf—APl-bla A375—Inhibitor Screen, Constitutively Activated
(§4) AP1-bla A375 cells are thawed and resuspended in Assay Media (OPTI-MEM, 0.5% dialyzed FBS, 0.1 mM NEAA, 1 mM Sodium Pyruvate, 100 U/mL/100 μg/mL Pen/Strep) to a concentration of 312,500 cells/mL. 4 μL of a 10× serial dilution of Raf1 Kinase Inhibitor (control inhibitor starting concentration, 10,000 nM) or compounds are added to appropriate wells of a TC-Treated assay plate. 32 μL of cell suspension (10,000 cells) is added to the wells. 4 μL of Assay Media is added to all wells to bring the final assay volume to 40 μL. The plate is incubated for 16-24 hours at 37° C./5% CO2 in a humidified incubator. 8 μL of 1 μM Substrate Loading Solution is added to each well and the plate is incubated for 2 hours at room temperature.

[2] = test system: Wnt/Beta-Catenin pathway (LEF-TCF-bla SW480 cells); test: Wnt/Beta-Catenin (APC-/-) LEF-TCF-bla SW480 inhibitor screen, constitutively activated; type: cell-based; settings: for IC50: read-out: TCF/LEF receptor gene activity IC50
Protocol: as §1, §2, §3
Wnt/Beta-Catenin (APC−/−)—LEF-TCF-bla SW480—Inhibitor Screen, Constitutively Activated
as §4, with “LEF-TCF-bla SW480” for “AP1-bla A375”, “ICG-001” for “Raf1 Kinase Inhibitor”

IC50 ([1]; Homo sapiens, A-375, read-out: AP receptor gene activity IC50) | IC50 ([2]; Homo sapiens, SW480) | IC50 ([1]; read-out: AP receptor gene activity IC50) | IC50 [2] | SMILES | inhibition at 10 µM ([2]; Homo sapiens, SW480, read-out: TCF/LEF receptor gene activity [% inhibition at 10 μM]) | TCF/LEF receptor gene activity [% inhibition at 10 μM] ([2]; 10 μM)
> 50 µM | 5.8 µM |  |  | CN1CC(=O)N2C[C@@H](NC(=O)c3cccc4ccccc34)C[C@H]2COc2ccc(F)cc2C(=O)N(C)[C@H](C(=O)NCc2ccc3ccccc3c2)CCC1=O [Ex. 503, (2S,11S,19aS)-15-fluoro-7,12-dimethyl-2-(1-naphthoylamino)-N-(2-naphthylmethyl)-5,8,13-trioxo-2,3,6,7,8,9,10,11,12,13,19,19a-dodecahydro-1H,5H-pyrrolo[2,1-c] [1,4,7,12]benzoxatriazacyclopentadecine-11-carboxamide] | 68% | 
 |  | > 50 µM | 1.1 µM | CN1CC(=O)N2C[C@@H](NC(=O)Cc3ccc4ccccc4c3)C[C@H]2COc2ccc(F)cc2C(=O)N(C)[C@H](C(=O)NCc2cccc3ccccc23)CCC1=O [Ex. 501, (2S,11S,19aS)-15-fluoro-7,12-dimethyl-2-{[2-(2-naphthyl)acetyl]amino}-N-(1-naphthylmethyl)-5,8,13-trioxo-2,3,6,7,8,9, 10,11,12,13,19,19a-dodecahydro-1H,5H-pyrrolo[2,1-c] [1,4,7,12]benzoxatriazacyclo-pentadecine-11-carboxamide] |  | 100%
